These results are taken from ChEMBL document CHEMBL1148572, “1-((S)-2-aminopropyl)-1H-indazol-6-ol: a potent peripherally acting 5-HT2 receptor agonist with ocular hypotensive activity” (J Med Chem, 2006).

pEC50, pKi: −log10 of the molar value.

In data set [1] the target is GABA-A receptor; benzodiazepine site (Homo sapiens) (UniProt P14867+P18507+P48169+Q99928+P34903+Q8N1C3+P47869+P31644+Q16445). Briefly: Inhibition of central benzodiazepine site on GABAA receptor at 1 nM. Type of data set: protein-complex assay.
For data set [2], the target named is T1, Glutamate receptor ionotropic AMPA (Homo sapiens) (UniProt P48058+P42263+P42262+P42261). Briefly: Inhibition of AMPA receptor at 1 nM. It is filed as protein-complex assay.
For data set [3], the target named is T1, Glutamate receptor ionotropic AMPA (Homo sapiens). Briefly: Inhibition of AMPA receptor at 10 uM. It is filed as protein-complex assay.
Data set [4] addresses Muscarinic acetylcholine receptor (Homo sapiens) (UniProt P20309+P08173+P11229+P08172+P08912). Briefly: Inhibition of non selective binding to muscarinic receptor at 10 uM. Type of data set: protein assay.
In data set [5] the target is Opioid receptors; mu/kappa/delta (Homo sapiens) (UniProt P41145+P41143+P35372). Description: Inhibition of non selective binding to opiate receptor at 10 uM. It is filed as protein assay.
Data set [6] addresses T2, monoamine oxidase A (MAO-A) (Rattus norvegicus, UniProt P21396).
T2 sequence (P21396 whole entry): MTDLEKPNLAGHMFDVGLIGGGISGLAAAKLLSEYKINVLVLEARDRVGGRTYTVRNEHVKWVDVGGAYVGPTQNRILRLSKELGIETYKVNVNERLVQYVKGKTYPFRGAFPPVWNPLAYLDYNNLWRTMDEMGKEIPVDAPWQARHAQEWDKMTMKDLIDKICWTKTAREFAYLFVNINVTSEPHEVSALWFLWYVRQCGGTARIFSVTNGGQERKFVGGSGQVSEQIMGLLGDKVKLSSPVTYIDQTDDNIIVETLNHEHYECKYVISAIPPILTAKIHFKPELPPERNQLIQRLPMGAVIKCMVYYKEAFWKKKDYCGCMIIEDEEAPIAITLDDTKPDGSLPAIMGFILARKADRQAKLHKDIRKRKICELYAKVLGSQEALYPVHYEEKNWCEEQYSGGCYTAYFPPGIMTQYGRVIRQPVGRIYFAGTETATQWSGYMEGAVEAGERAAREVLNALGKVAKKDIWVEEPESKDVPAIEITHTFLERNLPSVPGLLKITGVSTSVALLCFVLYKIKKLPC
Description: Inhibition of monoamine oxidase A in rat brain at 10 uM. Type of data set: tissue-based.

Data set [7] deals with T3, Estrogen receptor (Homo sapiens) (UniProt Q92731+P03372). Briefly: Inhibition of estrogen receptor at 1 nM. Type of data set: protein assay.
The target of data set [8] is T3, Estrogen receptor (Homo sapiens). Briefly: Inhibition of estrogen receptor at 10 uM. Type of data set: protein assay.
Data set [9] addresses L-type calcium channel, dihydropyridine site (Homo sapiens, UniProt O60840+Q01668+Q13698+Q13936). Description: Inhibitory activity at dihydropyridine site of Calcium channel L type at 100 nM. Type of data set: protein assay.
Data set [10] in a line: Inhibitory activity at site 2 of sodium channel at 100 nM.
Data set [11] deals with T2, monoamine oxidase A (MAO-A). Description: Inhibition of monoamine oxidase A in rat brain at 1 nM. Type of data set: tissue-based.
The target of data set [12] is T4, Cysteinyl leukotriene receptor 1 (Homo sapiens) (UniProt Q9Y271).
T4 sequence (whole entry): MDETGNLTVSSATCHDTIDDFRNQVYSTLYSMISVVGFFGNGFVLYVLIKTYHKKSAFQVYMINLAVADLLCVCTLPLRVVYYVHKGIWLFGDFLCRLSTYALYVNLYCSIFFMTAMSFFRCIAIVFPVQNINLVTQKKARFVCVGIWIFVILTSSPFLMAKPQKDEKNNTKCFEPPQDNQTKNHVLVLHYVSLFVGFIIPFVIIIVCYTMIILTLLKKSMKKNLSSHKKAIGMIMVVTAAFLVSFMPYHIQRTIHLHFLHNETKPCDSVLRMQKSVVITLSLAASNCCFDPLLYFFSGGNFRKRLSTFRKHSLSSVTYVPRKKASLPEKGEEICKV
Description: Inhibition of leukotriene D4 at 10 uM.

The target in data set [13] is T5, Type-1 angiotensin II receptor (Homo sapiens) (UniProt P30556).
T5 sequence (whole entry): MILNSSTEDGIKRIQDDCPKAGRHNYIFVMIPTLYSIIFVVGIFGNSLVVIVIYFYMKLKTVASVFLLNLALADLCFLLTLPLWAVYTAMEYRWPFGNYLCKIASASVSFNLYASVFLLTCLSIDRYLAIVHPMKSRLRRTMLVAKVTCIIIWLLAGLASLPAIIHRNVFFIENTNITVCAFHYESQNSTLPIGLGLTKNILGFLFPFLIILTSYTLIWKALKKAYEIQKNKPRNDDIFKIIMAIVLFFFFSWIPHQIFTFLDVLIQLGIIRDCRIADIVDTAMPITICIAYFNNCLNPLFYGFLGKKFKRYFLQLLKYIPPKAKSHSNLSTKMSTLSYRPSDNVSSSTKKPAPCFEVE
Description: Inhibition of type 1 angiotensin 2 receptor at 100 nM.

Data set [14] deals with T6, 5-hydroxytryptamine receptor 2C (Rattus norvegicus, UniProt P08909).
T6 sequence (P08909 whole entry): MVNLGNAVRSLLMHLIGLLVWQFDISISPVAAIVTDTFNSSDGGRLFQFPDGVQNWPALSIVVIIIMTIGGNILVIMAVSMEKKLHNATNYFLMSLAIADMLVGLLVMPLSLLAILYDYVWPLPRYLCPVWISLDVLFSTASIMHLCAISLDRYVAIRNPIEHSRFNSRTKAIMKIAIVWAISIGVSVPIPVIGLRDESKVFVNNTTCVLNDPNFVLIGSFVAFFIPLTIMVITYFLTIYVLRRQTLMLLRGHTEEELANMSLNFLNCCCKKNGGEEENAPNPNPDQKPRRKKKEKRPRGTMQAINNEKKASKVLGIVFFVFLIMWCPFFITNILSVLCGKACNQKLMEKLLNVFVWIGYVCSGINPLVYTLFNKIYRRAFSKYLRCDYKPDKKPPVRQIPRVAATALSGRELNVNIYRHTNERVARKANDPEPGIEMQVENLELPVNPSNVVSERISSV
Description: Activity against recombinant rat 5HT2C mediated intracellular calcium mobilization by FLIPR in SR3T3 cells.

For data set [15], the target named is Alpha-1A adrenergic receptor (Homo sapiens, UniProt P35348). Description: Inhibitory activity against adrenergic alpha-1A receptor.
Data set [16] deals with Alpha-1B adrenergic receptor (Homo sapiens, UniProt P35368). Description: Inhibitory activity against adrenergic alpha-1B receptor.
In data set [17] the target is T7, 5-hydroxytryptamine receptor 2C (Rattus norvegicus) (UniProt P08909).
T7 sequence (whole entry): T6 sequence (P08909 whole entry)
Description: Activity against recombinant rat 5HT2C mediated intracellular calcium mobilization by FLIPR in SR3T3 cells. (In general: Calcium flux is commonly read through the fluorescence of an indicator in the cells.)

Opioid receptors; mu/kappa/delta (Homo sapiens), sequence (P35372 whole entry, looked up): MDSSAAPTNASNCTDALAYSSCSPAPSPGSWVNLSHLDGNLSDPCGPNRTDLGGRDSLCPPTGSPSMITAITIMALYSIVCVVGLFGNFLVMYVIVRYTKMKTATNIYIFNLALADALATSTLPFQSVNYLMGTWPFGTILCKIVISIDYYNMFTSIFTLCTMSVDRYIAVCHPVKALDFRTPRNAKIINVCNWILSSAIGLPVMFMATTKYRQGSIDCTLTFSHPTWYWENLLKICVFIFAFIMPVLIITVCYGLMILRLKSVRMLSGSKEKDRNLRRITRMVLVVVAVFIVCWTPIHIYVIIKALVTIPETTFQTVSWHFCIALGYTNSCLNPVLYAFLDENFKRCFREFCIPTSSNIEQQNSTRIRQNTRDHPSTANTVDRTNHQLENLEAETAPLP
Opioid receptors; mu/kappa/delta (Homo sapiens), sequence (P41143 whole entry, looked up): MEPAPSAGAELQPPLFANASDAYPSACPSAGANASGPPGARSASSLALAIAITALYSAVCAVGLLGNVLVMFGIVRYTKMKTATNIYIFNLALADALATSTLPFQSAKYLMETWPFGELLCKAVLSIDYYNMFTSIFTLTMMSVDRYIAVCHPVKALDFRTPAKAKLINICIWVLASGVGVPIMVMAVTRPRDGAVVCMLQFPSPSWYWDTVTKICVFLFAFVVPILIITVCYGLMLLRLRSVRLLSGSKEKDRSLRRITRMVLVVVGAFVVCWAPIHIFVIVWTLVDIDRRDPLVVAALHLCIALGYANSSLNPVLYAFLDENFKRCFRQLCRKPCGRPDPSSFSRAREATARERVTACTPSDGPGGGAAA
Opioid receptors; mu/kappa/delta (Homo sapiens), sequence (P41145 whole entry, looked up): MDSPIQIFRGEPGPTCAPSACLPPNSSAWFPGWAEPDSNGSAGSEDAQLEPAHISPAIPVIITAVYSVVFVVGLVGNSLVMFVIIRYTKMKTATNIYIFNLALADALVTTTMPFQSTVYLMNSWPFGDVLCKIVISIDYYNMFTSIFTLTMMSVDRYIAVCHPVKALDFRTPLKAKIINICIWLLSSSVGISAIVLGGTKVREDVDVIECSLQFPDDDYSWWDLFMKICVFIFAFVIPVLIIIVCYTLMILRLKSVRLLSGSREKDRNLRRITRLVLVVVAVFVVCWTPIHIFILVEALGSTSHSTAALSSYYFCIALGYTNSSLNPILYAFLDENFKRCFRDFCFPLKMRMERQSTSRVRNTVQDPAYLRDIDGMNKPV
Alpha-1B adrenergic receptor, sequence (P35368 whole entry): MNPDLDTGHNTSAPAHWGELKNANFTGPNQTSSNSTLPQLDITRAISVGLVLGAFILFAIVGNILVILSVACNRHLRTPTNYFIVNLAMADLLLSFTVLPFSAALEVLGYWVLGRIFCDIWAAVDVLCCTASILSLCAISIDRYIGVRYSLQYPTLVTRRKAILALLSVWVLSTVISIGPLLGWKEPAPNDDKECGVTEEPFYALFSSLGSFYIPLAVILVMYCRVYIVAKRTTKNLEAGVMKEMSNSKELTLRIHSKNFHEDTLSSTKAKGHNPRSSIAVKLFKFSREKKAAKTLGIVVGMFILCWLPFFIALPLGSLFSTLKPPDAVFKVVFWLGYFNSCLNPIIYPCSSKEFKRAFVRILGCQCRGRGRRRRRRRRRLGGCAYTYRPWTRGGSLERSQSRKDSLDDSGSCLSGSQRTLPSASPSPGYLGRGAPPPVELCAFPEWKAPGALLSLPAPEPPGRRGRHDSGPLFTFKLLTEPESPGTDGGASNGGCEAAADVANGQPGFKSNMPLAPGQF
Alpha-1A adrenergic receptor, sequence (P35348 whole entry): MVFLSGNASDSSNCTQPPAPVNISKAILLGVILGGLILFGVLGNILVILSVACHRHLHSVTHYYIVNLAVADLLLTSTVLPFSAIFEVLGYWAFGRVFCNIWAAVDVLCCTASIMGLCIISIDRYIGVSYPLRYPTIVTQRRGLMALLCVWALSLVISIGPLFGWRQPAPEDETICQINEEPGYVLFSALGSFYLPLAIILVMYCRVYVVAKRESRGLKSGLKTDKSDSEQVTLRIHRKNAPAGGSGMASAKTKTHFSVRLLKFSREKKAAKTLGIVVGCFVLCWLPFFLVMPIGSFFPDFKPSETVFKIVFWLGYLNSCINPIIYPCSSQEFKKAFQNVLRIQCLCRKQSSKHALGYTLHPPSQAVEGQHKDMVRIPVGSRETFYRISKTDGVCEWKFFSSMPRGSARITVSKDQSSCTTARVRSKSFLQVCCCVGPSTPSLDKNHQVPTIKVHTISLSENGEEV

Take `C[C@H](N)Cn1ncc2ccc(O)cc21`: the inhibition (usually the change of the read-out against control, counted positive when it falls) in [1] worked out at 19.6%; in data set [2], 9.31%; in [3], 7.62%; in data set [4], 12.2%; in data set [5] it was 63.3%; in data set [7] it was 10.8%. In addition, the inhibition in data set [8] stood at 17.7%; in data set [10] it was 5.17%; in data set [12], 0.07%; in [13] it was 7.33%. In addition, in data set [6], the inhibition at 10 µM was 0.82%. The inhibition at 0.1 µM in [9] was 12%. Further, the inhibition at 0.001 µM in data set [11] was -14.4%. In [14], the pEC50 (commonly the EC50 on a negative log10 scale, so that one unit is a factor of ten) was 8.43. In addition, the pKi in data set [15] and in [16] was below 4.52 each time. Further, the Emax (in general, the greatest response seen or fitted, relative to the assay's reference) in data set [17] turned out to be 89%.
